According to the NIST ThermoML archive (doi:10.1021/je060271a):
± gives the expanded uncertainty stated by the source.

Conditions: 323.14 K, Liquid, Vibrating tube method

CCCCCCC(=O)OCC(COC(=O)CCCCCC)(COC(=O)CCCCCC)COC(=O)CCCCCC [pentaerythritol tetraheptanoate]
Conditions	mass density [kg/m3]
4070.6 kPa	958.4 ± 1.2
4070.9 kPa	958.4 ± 1.2
4071.6 kPa	958.4 ± 1.2
4087 kPa	958.4 ± 1.2
4104.9 kPa	958.6 ± 1.2
4128 kPa	958.5 ± 1.2
4142.2 kPa	958.4 ± 1.2
4163.9 kPa	958.4 ± 1.2
4182.2 kPa	958.4 ± 1.2
4200.8 kPa	958.5 ± 1.2
4223.1 kPa	958.5 ± 1.2
4242.2 kPa	958.5 ± 1.2
4261 kPa	958.6 ± 1.2
4283.7 kPa	958.6 ± 1.2
4303.6 kPa	958.5 ± 1.2
4323.2 kPa	958.5 ± 1.2
4347.4 kPa	958.6 ± 1.2
4367.2 kPa	958.6 ± 1.2
4384.2 kPa	958.6 ± 1.2
4401.5 kPa	958.6 ± 1.2
4419 kPa	958.8 ± 1.2
4440.1 kPa	958.7 ± 1.2
4458.6 kPa	958.6 ± 1.2
4475.9 kPa	958.6 ± 1.2
4487.7 kPa	958.7 ± 1.2
4498.8 kPa	958.7 ± 1.2
4507.3 kPa	958.8 ± 1.2
4516.1 kPa	958.6 ± 1.2
4528.2 kPa	958.7 ± 1.2
4546.9 kPa	958.7 ± 1.2
4567.4 kPa	958.6 ± 1.2
4588 kPa	958.7 ± 1.2
4612.9 kPa	958.7 ± 1.2
4634.2 kPa	958.7 ± 1.2
4656 kPa	958.8 ± 1.2
4677.4 kPa	958.8 ± 1.2
4703.4 kPa	958.9 ± 1.2
4725.2 kPa	958.9 ± 1.2
4747.6 kPa	958.9 ± 1.2
4774 kPa	958.9 ± 1.2
4796.4 kPa	958.9 ± 1.2
4819 kPa	958.9 ± 1.2
4845.9 kPa	958.9 ± 1.2
4869.6 kPa	959 ± 1.2
4893.1 kPa	959 ± 1.2
4921 kPa	959 ± 1.2
4945 kPa	958.9 ± 1.2
4968.9 kPa	959 ± 1.2
4997.5 kPa	959 ± 1.2
5022.2 kPa	959 ± 1.2
5047.1 kPa	959.1 ± 1.2
5072.5 kPa	959.1 ± 1.2
5103.3 kPa	959.1 ± 1.2
5129.3 kPa	959.1 ± 1.2
5156.3 kPa	959.1 ± 1.2
5189.2 kPa	959.2 ± 1.2
